Test results as given in patent US5589335A, “Hybridization promotion reagents” (Amoco Corporation, priority 1994, dated 1996).
Where a name gives a salt, the structure may show the parent alone. Each block holds one compound with its values, some of them ahead of it.

Key:
Proteinase K = Proteinase K (Parengyodontium album, UniProt P06873); experiment: Proteinase K activity (digestion of 14C-labeled BSA); format: biochemical
Description: Prior to empirical determination, it could not be predicted whether addition of the GuSCN to TMA.TFA would produce a reagent with the capability of controlling nucleases. The extent of Proteinase K activity in GT^3 was assayed by determining its ability to digest (solubilize) ^14 C-labeled bovine serum albumin (BSA).
These experiments were done twice, and the percentages below are the averages of the two experiments; the numbers in parentheses are the experimental variations.

RNase A = molecular target: T1, RNase A (Bos taurus, UniProt P61823); experiment: RNase A inhibition (capturable rRNA target complex); format: biochemical; details: for % RNase inhibition: 37° C., 15 minutes; for RNase inactivated: RNase 0.125 μg/ml, 15 min
T1 sequence (P61823 27-150): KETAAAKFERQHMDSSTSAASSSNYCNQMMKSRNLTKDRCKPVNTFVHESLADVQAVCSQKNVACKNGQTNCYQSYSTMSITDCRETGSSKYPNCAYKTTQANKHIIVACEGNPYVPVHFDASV
Description: Though the ability of a hybridization medium to support protease activity is desirable, an equally (or more) important property is the capability of inhibiting nucleases, especially ribonucleases. […] The experimental protocol was a follows:
1) A target complex was prepared by hybridizing target rRNA (from Salmonella extracts), capture probe (dA-676), and ^32 P-labeled 3'-Riboprobe (as earlier described).
2) The target complex was diluted into each of the above four test reagents.
3) RNase A solutions of various concentrations (0-250 μg/ml in […] phosphate buffer pH7) were prepared. Into tubes of the diluted target complex was added RNase A, to one of the final concentrations noted in Table 3 below. The control comprised only phosphate buffer diluent. The mixtures were incubated at 37° C. for 15 minutes. Proteinase K was added to a final concentration of 1.25 mg/ml to stop the nuclease activity.
4) Tailed probes and hybridized complexes were captured on magnetic beads (as previously described), which were washed and counted. The level of RNase inhibition was calculated as follows. [formula]

Reagent stability = format: physicochemical
Description: TMA.TFA was prepared by combining equimolar amounts of concentrated Trifluoroacetic acid (Sigma Chemical Co. or Pierce Chemical Co.) and TMA.OH (Sigma Chemical Co. or Southwestern Analytical Chemicals, Inc.) and buffering it with 0.1M phosphate, 0.1M borate, 0.05 mM EDTA (phosphoric acid, boric acid, and EDTA (free acid), neutralized with TMA.OH). Buffered TMA.TFA remained at a constant pH for at least 1 year and its refractive index indicated a loss of only 2-3% of the solutes over the same period.
TMA.TCA is ideally prepared by neutralizing highly concentrated TCA (~9.3M, or ~1.5 g/ml) with TMA.OH. […] This is ideally avoided since the efficiency of hybridization falls as the pH becomes less neutral. […] From the mass, volume and concentration of starting materials, and the volume of the final solution, the nominal concentration of the final product was calculated to be about 3M.

Chain of Proteinase K (P06873 106-384): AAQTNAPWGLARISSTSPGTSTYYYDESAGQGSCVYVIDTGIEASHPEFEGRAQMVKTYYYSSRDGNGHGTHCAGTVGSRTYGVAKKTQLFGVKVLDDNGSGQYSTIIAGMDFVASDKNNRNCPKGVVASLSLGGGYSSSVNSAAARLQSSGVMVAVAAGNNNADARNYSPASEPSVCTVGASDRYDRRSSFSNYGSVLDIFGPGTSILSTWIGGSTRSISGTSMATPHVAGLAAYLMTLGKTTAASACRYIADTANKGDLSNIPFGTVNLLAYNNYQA

- % BSA solubilized (Proteinase K; Proteinase K in reagent): 41% (+/-10%)
- half-life of Proteinase K activity (Proteinase K; incubation at 37° C. in reagent): less than an hour
- % RNase inhibition (RNase A; RNase A 0.00 ug/ml): 100%
- % RNase inhibition (RNase A; RNase A 0.13 ug/ml): 100%
- % RNase inhibition (RNase A; RNase A 1.25 ug/ml): 100%
- % RNase inhibition (RNase A; RNase A 4.17 ug/ml): 100%
- % RNase inhibition (RNase A; RNase A 12.50 ug/ml): 100%
SMILES: N=C(N)N [GuSCN, Guanidinium thiocyanate]

SMILES: C[N+](C)(C)C [TMA.TCA, Tetramethyammonium:Trichloroacetate]
- Proteinase K activity in reagent (Proteinase K): advantageously active
- pH stability (Reagent stability; buffered with phosphate (0.1M) and borate (0.1M)): at least one month

SMILES: C[N+](C)(C)C [TMA.TFA, Tetramethyammonium:Trifluoroacetate]
- RNase A inhibition (RNase A): relatively ineffective in inactivating RNase
- RNase inactivated (RNase A; with Proteinase K 2.5 mg/ml): 92%
- RNase inactivated (RNase A; without the protease): 73%
- time at constant pH (Reagent stability; buffered solution): at least 1 year
